Laboratory results from US20200069592A1, “HSP90 INHIBITOR ORAL FORMULATIONS AND RELATED METHODS” (Samus Therapeutics, Inc., priority 2017, published 2020).
Marks after values point to notes of the source that are not given here.

Legend:
[1] = system: MDA-MB-468 triple negative breast tumor xenograft; assay: MDA-MB-468 triple negative breast tumor xenograft model, tumor volume (IP vs PO); assay type: in vivo, Nu/Nu (athymic nude) female mice; details: for Mean tumor volume as % of mean tumor volume in control mice receiving vehicle alone / Mean tumor volume as % of mean tumor volume in mice receiving 75 mg/kg orally or intraperitoneally: Day 89; for Mean tumor volume on Day 117 relative to the same mice at Day 1: treatment stopped Day 103
Procedure: Mice were identified with a transponder.
To form the xenografts, 1×10^7 MDA-MB-468 cells suspended in 0.1 ml of 50% Matrigel/50% Media (1:1) were injected into the mammary fat pad of each mouse. Treatment was initiated when the mean tumor size reached 100-150 mm^3 and the day of treatment initiation was designated as Day 1. Subcutaneous tumor size was calculated as tumor volume (mm^3)=(a×b^2/2), where ‘b’ is the smallest diameter and ‘a’ is the largest diameter.
Oral gavage was used for oral administration.

[2] = Plasma pharmacokinetics after single oral dose in ORA-Plus or SyrSpend SF (Example 6), LC-MS/MS; assay type: in vivo, Sprague Dawley rats; details: for % AUC0-last test vs reference: rats, ratio of group averages; for AUC(0-t) / Cmax / Tmax / AUC(0-inf) / half-life: female, Sprague Dawley, rat, plasma, po
[3] = Tolerability (body weight, toxicity, maximum tolerated dose) in the Example 5 rat study; assay type: in vivo; details: female, Sprague Dawley, rat, in vivo, iv
Procedure: Ninety-four total animals were observed thereafter. The parenteral administration is performed by tail vein injection.

[4] = female, Nu/Nu (NU-Foxn1^nu) athymic nude, mouse, in vivo, po, 150 mg/kg, 14 days
From the text: (§1) The animals used in this study were Nu/Nu (NU-Foxn1^nu) (athymic nude) physiologically normal female mice supplied by Charles River. At the time of inoculation, the age of the animals was 5-8 weeks. Sixty total animals were used and animals were not replaced during the course of this study. Mice were identified with a transponder. The animals were housed in individually ventilated microisolator cages and allowed to acclimate for at least 5-7 days. The animals were maintained under pathogen-free conditions and given Teklad Global Diet® 2920x irradiated pellets for food and autoclaved water ad libitum.
(§2) Compound ldihydrochloride (2HCl) was provided as a crystalline powder and stored at 2-8° C. protected from light. The administered form of Compound 1 2HCl was a clear solution. For intraperitoneal administration, Compound 1 2HCl was reconstituted in PBS. For oral administration, Compound 1 2HCl was reconstituted in 0.5% Methylcellulose (MC) in water. The salt: base ratio was 1.14:1 (i.e., to obtain 100 mg of Compound 1 free base, 114 mg of Compound 1 dihydrochloride salt was weighed out). Dose levels of Compound 1 were based on the free base, not the salt. Compound 1 2HCl in administered form was prepared fresh immediately prior to use.
(§3) Animals were randomized using random equilibration of tumor volume into one of six study groups, as shown in Table 22 (Groups 1-6), with 10 animals in each group.
(§4) Group 1 was administered vehicle control alone (without Compound 1 2HCl) intraperitoneally (IP) three times weekly (TIW) until the end of the study. PBS was used as the vehicle control and was administered at a volume of 10 mL/kg.
(§5) Groups 2-6 were administered Compound 1 2HCl at a volume of 10 mL/kg three times weekly (TIW) until the end of the study with the doses as described next.
(§6) Group 2 received 75 mg/kg Compound 1 2HCl via intraperitoneal administration.
(§7) Group 3 received 75 mg/kg Compound 1 2HCl via oral administration (PO). Group 4 received 100 mg/kg Compound 1 2HCl via oral administration. Group 5 received 125 mg/kg Compound 1 2HCl via oral administration. Group 6 received 150 mg/kg Compound 1 2HCl via oral administration. […]
(§8) Tumor volume and body weight were measured twice weekly with gross observations daily. […]
(§9) For data analysis, simple statistics (ANOVA) will be conducted on tumor volumes to verify significance of treatment groups relative to control. Growth curves will be constructed and percent tumor growth inhibition (TGI) will be calculated as a means to assess the effect of the single-agent therapy regimens. […]
(§10) The Materials and Methods used were the same as discussed above for Example 3, except for the lengths of treatment for Groups 1-4. […] Tumor growth and body weight were measured twice weekly with gross observations daily for Groups 1-5 until Day 117.

in vivo = details: female, Nu/Nu (NU-Foxn1^nu) athymic nude, mouse, ip
From the text: as §1, §2, §3, §4, §5, §6, §7, §8, §9, §10

[5] = Body weight change / dose tolerance in the MDA-MB-468 xenograft study
From the text: as §1, §2, §3, §4, §5, §6, §7, §8, §9, §10

[6] = G5: 2HCl, 24 mg/kg single oral dose, ORA-plus, rat plasma, n = 4
[7] = G6: 2HCl, 48 mg/kg single oral dose, ORA-plus, rat plasma
[8] = G12: 2HCl, 24 mg/kg single oral dose, SyrSpend, rat plasma, n = 1
[9] = G13: 2HCl, 48 mg/kg single oral dose, SyrSpend, n = 2
[10] = G14: 2HCl, 60 mg/kg single oral dose, SyrSpend, n = 3
[11] = 24 mg/kg, G5: 2HCl, 24 mg/kg single oral dose, ORA-plus, rat plasma
[12] = 24 mg/kg, G5: 2HCl, 24 mg/kg single oral dose, ORA-plus, rat plasma, n = 4
[13] = 24 mg/kg, G12: 2HCl, 24 mg/kg single oral dose, SyrSpend, rat plasma
[14] = 24 mg/kg, G12: 2HCl, 24 mg/kg single oral dose, SyrSpend, rat plasma, n = 1
[15] = 48 mg/kg, G6: 2HCl, 48 mg/kg single oral dose, ORA-plus, rat plasma
[16] = 48 mg/kg, G13: 2HCl, 48 mg/kg single oral dose, SyrSpend
[17] = 48 mg/kg, G13: 2HCl, 48 mg/kg single oral dose, SyrSpend, n = 2
[18] = 60 mg/kg, G14: 2HCl, 60 mg/kg single oral dose, SyrSpend
[19] = 60 mg/kg, G14: 2HCl, 60 mg/kg single oral dose, SyrSpend, n = 3

For `CC(C)NCCCn1c(Sc2cc3c(cc2I)OCO3)nc2c(N)ncnc21` [Compound 1 2HCl], the “Effect on tumor growth (tumor volume)” value ([1]; 75 mg/kg IP, TIW, Day 36) was “tumor inhibition was observed”, the “Mean tumor volume as % of mean tumor volume in control mice receiving vehicle alone” value ([1]; 75 mg/kg IP, TIW) was “about 20%” and the “Mean tumor volume on Day 117 relative to the same mice at Day 1” value ([1]; 75 mg/kg IP) was 1.7-1.9 times. For the same compound, the “Effect on tumor growth (tumor volume)” value ([1]; 75 mg/kg PO vs same dose IP, first 14 days of treatment) was “inhibited tumor growth slightly more than intraperitoneal administration”, the “Effect on tumor growth (tumor volume)” value ([1]; 75 mg/kg PO, TIW, Day 36) was “tumor inhibition was observed” and the “Mean tumor volume as % of mean tumor volume in control mice receiving vehicle alone” value ([1]; 75 mg/kg PO, TIW) was “about 20%”. For the same compound, the “Mean tumor volume on Day 117 relative to the same mice at Day 1” value ([1]; 75 mg/kg PO) was 1.7-1.9 times, the “Effect on tumor growth (tumor volume)” value ([1]; 100 mg/kg PO, TIW, 89 days) was “tumor regressive” and the “Effect on tumor growth (tumor volume)” value ([1]; 100 mg/kg PO, TIW, Day 36) was “Tumor inhibition was also observed”. The “Mean tumor volume as % of mean tumor volume in mice receiving 75 mg/kg orally or intraperitoneally” value ([1]; 100 mg/kg PO, TIW) was “about 50%”, the “Mean tumor volume as % of mean tumor volume in the same mice at day 1” value ([1]; 100 mg/kg PO, after treatment stopped Day 103, study to Day 117) was “about 63%” and the “Effect on tumor growth (tumor volume)” value ([1]; 125 mg/kg PO, TIW (dosing holiday Day 29), 36 day period) was “caused tumor regression”. For the same compound, the “Mean tumor volume as % of mean tumor volume in mice receiving 75 mg/kg orally or intraperitoneally” value ([1]; 125 mg/kg PO, TIW with dosing holidays, dosing ended Day 78) was “about 50%”, the “Effect on tumor growth (tumor volume)” value ([1]; 125 mg/kg PO, TIW with dosing holidays, 89 days) was “tumor regressive” and the “Mean tumor volume as % of mean tumor volume in the same mice at day 1” value ([1]; 125 mg/kg PO, after treatment stopped Day 78, study to Day 117) was about 70%. The “Effect on tumor growth (tumor volume)” value ([1]; Group 2: 75 mg/kg IP in PBS, TIW, Study Days 1-8) was “did not inhibit tumor growth”, the “Effect on tumor growth (tumor volume)” value ([1]; Group 3: 75 mg/kg PO in 0.5% MC, TIW, Day 8, compared with Group 2) was “tumor growth was reduced” and the “Effect on tumor growth (tumor volume)” value ([1]; Group 4: 100 mg/kg PO, TIW, Days 1-8, compared to Group 1) was “Inhibition of tumor growth”. The “Effect on tumor growth (tumor volume)” value ([1]; Group 5: 125 mg/kg PO, TIW, Days 1-8) was “greatest suppression of tumor growth”, the “Effect on tumor growth (tumor volume)” value ([1]; Group 6: 150 mg/kg PO, TIW, Days 1-8) was “greatest suppression of tumor growth” and the “AUC % Extrap” value [2, 6] was 5.00 ± 4.92 %. For the same compound, the Cl_F [2, 6] was 6.14 ± 2.32 L/h/kg, the Vz_F [2, 6] was 15.12 ± 3.53 L/kg and the “AUC % Extrap” value [2, 7] was 1.42 ± 0.79%. The Cl_F [2, 7] was 6.63 ± 2.82 L/h/kg, the Vz_F [2, 7] was 33.74 ± 16.37 L/kg and the “AUC % Extrap” value [2, 8] was 0.47^a %. For the same compound, the Cl_F [2, 8] was 4.17^a L/hr/kg, the Vz_F [2, 8] was 17.51^a L/kg and the “AUC % Extrap” value [2, 9] was 6.76 ± 5.82 %. The “Cl_F” value [2, 9] was 22.85 ± 5.76 L/h/kg, the “Vz_F” value [2, 9] was 139.42 ± 13.22 L/kg and the “AUC % Extrap” value [2, 10] was 0.69 ± 0.34 %. The “Vz_F” value [2, 10] was 27.15 ± 11.86 L/kg, the “% AUC0-last test vs reference” value ([2]; Group 5 (24 mg/kg 2HCl ORA-plus) vs Group 6 (48 mg/kg 2HCl ORA-plus)) was 53.01% and the “% AUC0-last test vs reference” value ([2]; Group 5 (24 mg/kg 2HCl ORA-plus) vs Group 12 (24 mg/kg 2HCl SyrSpend)) was 84.12%. The “% AUC0-last test vs reference” value ([2]; Group 6 (48 mg/kg 2HCl ORA-plus) vs Group 13 (48 mg/kg 2HCl SyrSpend)) was 298.14%, the “% AUC0-last test vs reference” value ([2]; Group 6 (48 mg/kg 2HCl ORA-plus) vs Group 14 (60 mg/kg 2HCl SyrSpend)) was 62.79% and the “% AUC0-last test vs reference” value ([2]; Group 12 (24 mg/kg 2HCl SyrSpend) vs Group 13 (48 mg/kg 2HCl SyrSpend)) was 187.87%. For the same compound, the “% AUC0-last test vs reference” value ([2]; Group 12 (24 mg/kg 2HCl SyrSpend) vs Group 14 (60 mg/kg 2HCl SyrSpend)) was 39.57%, the “% AUC0-last test vs reference” value ([2]; Group 13 (48 mg/kg 2HCl SyrSpend) vs Group 14 (60 mg/kg 2HCl SyrSpend)) was 21.06% and the AUC(0-t) [2, 11] was 4200 ± 1120 ng·h/mL. It also gave a Cmax [2, 11] of 1070 ± 221 ng/mL, a Tmax [2, 11] of 2.4 ± 0.89 h and an AUC(0-inf) [2, 12] of 4250 ± 1230 ng·h/mL. The half-life [2, 12] was 1.8 ± 0.47 h, the AUC(0-t) [2, 13] was 5000 ± 1260 ng·h/mL and the Cmax [2, 13] was 1030 ± 151 ng/mL. For the same compound, the Tmax [2, 13] was 3.2 ± 1.1 h, the AUC(0-inf) [2, 14] was 5750 ng·h/mL and the half-life [2, 14] was 2.91 h. The AUC(0-inf) [2, 15] was 8040 ± 2410 ng·h/mL, the AUC(0-t) [2, 15] was 7930 ± 2380 ng·h/mL and the Cmax [2, 15] was 1120 ± 429 ng/mL. For the same compound, the Tmax [2, 15] was 2.8 ± 1.1 h, the half-life [2, 15] was 3.5 ± 0.53 h and the AUC(0-t) [2, 16] was 2660 ± 946 ng·h/mL. It also gave a Cmax [2, 16] of 1990 ± 787 ng/mL, a Tmax [2, 16] of 0.7 ± 0.27 h and an AUC(0-inf) [2, 17] of 2170 ± 548 ng·h/mL. The half-life [2, 17] was 4.42 ± 1.52 h, the AUC(0-t) [2, 18] was 12600 ± 5100 ng·h/mL and the Cmax [2, 18] was 1710 ± 314 ng/mL. For the same compound, the Tmax [2, 18] was 2.4 ± 2.07 h, the AUC(0-inf) [2, 19] was 11500 ± 4440 ng·h/mL and the half-life [2, 19] was 3.2 ± 0.4 h. The “Time point up to which all animals had quantifiable plasma levels” value ([2]; single oral dose, ORA-Plus or SyrSpend, data not shown) was at least 8 h, the MTD [3] was 24 mg/kg and the Treatment toxicity [4] was “stopped on Day 14 due to toxicity”. For the same compound, the MTD at 103 days (in vivo) was 75 mg/kg, the Body weight change ([5]; 100 mg/kg PO, during and after treatment (to Day 117)) was “minimal effects on body weight” and the Body weight change ([5]; Group 2: 75 mg/kg IP, Day 5 and Day 8) was “greater decrease in body weight”.
